Key:
SW1900 cells (KRAS G12D) = assay: Cell-based pERK HTRF assay in SW1900 cells (Biological Example 5)
Description: (§1) Biological Example 5: Cell-based PERK HTRF assay in AsPC-1, SW1900, HPAC, Capan-2, RKN, H358, HCT116, KP-2, H1573, A549, MKN1, and HT1080 cells
(§2) The inhibition of ERK phosphorylation, as measured using the HTRF Advanced Phospho-ERK 1/2 (Thr202/Tyr204) Detection Assay kit (Perkin Elmer), was used to determine the effectiveness of test compounds in disrupting KRAS-driven protein/effector signaling in cells.
(§3) On day 1, cells were seeded into 96-well plates at 2.5×10^4 cells/well in 100 μL of complete growth media supplemented with 10% fetal bovine serum (FBS) and incubated at 37° C., in the presence of 5% CO2.
(§4) On day 2, cells were treated with compounds diluted in DMSO at 0.25% final DMSO concentration. Compounds were dosed in a 9-point concentration curve with three-fold dilution between concentrations. Cells were incubated in the presence of compound for two hours at 37° C. Following this treatment period, cells were harvested by aspirating the media, adding 40 μL of kit-supplied 1x lysis buffer per well, and shaking for 30 minutes at 250 rpm at room temperature.
(§5) Following cell lysis, samples were homogenized by pipetting up and down twenty times and 16 μL of cell lysate per well was transferred from the 96-well cell culture plate to two wells of a 384-well detection plate. A complete detection buffer was prepared by diluting D2 and Eu Cryptate antibodies 1:20 in kit-provided detection solution, 4 μL of complete detection buffer was then added to each well with lysate. Plates were incubated with gentle rocking for 24 hours at 4° C.
(§6) Following this incubation period, plates were centrifuged at 500×g for one minute and analyzed on a CLARIOstar plate reader. Data was imported into Microsoft Excel and the signal from the 665 nm channel was divided by the signal from the 620 nm channel. % pERK was calculated as: […]
(§7) Data was imported to the Prism software package (Graphpad) and EC50 values were calculated using the log (inhibitor) vs, response—variable slopc (Four parameters) model.

HPAC cells (KRAS G12D) [1] = assay: Cell-based pERK HTRF assay in HPAC cells (Biological Example 5)
Description: as §1, §2, §3, §4, §5, §6, §7

H358 cells (KRAS G12C) = assay: Cell-based pERK HTRF assay in H358 cells (Biological Example 5)
Description: as §1, §2, §3, §4, §5, §6, §7

A549 cells (KRAS G12S) = assay: Cell-based pERK HTRF assay in A549 cells (Biological Example 5); settings: Homo sapiens
Description: as §1, §2, §3, §4, §5, §6, §7

HT1080 cells (NRAS) = assay: Cell-based pERK HTRF assay in HT1080 cells (Biological Example 5); settings: Homo sapiens, HT-1080
Description: as §1, §2, §3, §4, §5, §6, §7

HPAC cells (KRAS G12D) [2] = assay: 3D Cell viability assay in HPAC cells (Biological Example 6); assay type: cell-based; settings: HPAC (KRAS G12D) spheroids
Description: Biological Example 6: 3D Cell viability assay in AsPC-1, SW1900, HPAC, Capan-2, RKN, H358, HCT116, KP-2, H1573, A549, MKN1, and HT1080 cells
The inhibition of cellular viability as a result of test compound treatment in a spheroid assay was measured using the CellTiter-Glow 3D Cell Viability Assay (Promega).
On Day 1, 1000 cells per well were seeded in 150 μL of complete growth media supplemented with 10% fetal bovine serum (FBS) and incubated at 37° C., in the presence of 5% CO2 in 96-well ultra-low attachment microplates (Corning) for 48 hours undisturbed to allow spheroids to form.
Following spheroid formation, cells were treated with compounds diluted in DMSO at 0.25% final DMSO concentration. Compounds were dosed in a 9-point concentration curve with three-fold dilution between concentrations. Cells were incubated in the presence of compound for 72 hours at 37° C., in the presence of 5% CO2.
Following this incubation period, the kit-provided CTG reagent was allowed to equilibrate for 30 minutes at room temperature, 150 μL of equilibrated CTG reagent was added to each well, and the plate was sealed before shaking at 250 rpm for 10 minutes at room temperature to lyse the cells, 150 μL of lysate per well was transferred to a 96-well plate and luminescence was read on a CLARIOstar plate reader.
Data was imported into the Prism software package (Graphpad) and EC50 values were calculated using the log (inhibitor) vs, response—variable slope (Four parameters) model.

[3] = target: T1, Avi-KRAS G12C (2-169) GTP/RAF1 RBD-3xFLAG (51-131) (Homo sapiens, UniProt P01116, G12C); assay: Raf1-KRAS G12C-GTP disruption HTRF assay (Biological Example 3); assay type: binding; settings: KRAS G12C, GTP-loaded
T1 construct: Avi-KRAS G12C (2-169)
Procedure, shortened: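 An HTRF assay measured disruption of 50 nM Avi-KRAS (2-169)-GTP (WT, G12C, G12D or G12V) bound to RAF1 RBD-3xFLAG (51-131). Buffer was Tris pH 7.5 with 5 mM MgCl2 and 10% DMSO. Compounds (30–0.005 μM, 3-fold, 10 points) were incubated 1 h at room temperature, and activity is given as % of DMSO.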

[4] = Homo sapiens, SW1990, SW1990 cells (text: SW1900, KRAS G12D)
[5] = Homo sapiens, NCI-H358, H358 (KRAS G12C) cells
[6] = SW1990 cells (text: SW1900, KRAS G12D)

T1 sequence (P01116 2-169 isoform P01116-2 G12C): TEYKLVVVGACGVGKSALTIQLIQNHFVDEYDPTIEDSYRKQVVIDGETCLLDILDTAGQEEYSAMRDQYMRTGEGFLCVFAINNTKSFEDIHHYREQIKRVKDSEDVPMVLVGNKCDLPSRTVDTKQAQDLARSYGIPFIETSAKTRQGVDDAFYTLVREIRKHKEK

SMILES	IC50 (SW1900 cells (KRAS G12D); [4]) [nM]	IC50 (HPAC cells (KRAS G12D) [1]; Homo sapiens, HPAC) [nM]	IC50 (H358 cells (KRAS G12C); [5]) [nM]	IC50 (A549 cells (KRAS G12S)) [nM]	IC50 (HT1080 cells (NRAS)) [nM]	IC50 (HPAC cells (KRAS G12D) [2]; Homo sapiens, HPAC, 72 h) [nM]	IC50 [3] [nM]	IC50 (SW1900 cells (KRAS G12D); [6]) [nM]	IC50 (HPAC cells (KRAS G12D) [1]) [nM]	IC50 (H358 cells (KRAS G12C); H358 (KRAS G12C) cells) [nM]	IC50 (HPAC cells (KRAS G12D) [2]; 72 hours) [nM]
CCC(=O)N1CC[C@@H](N(C)c2nc(OC[C@@]34CCCN3C[C@H](F)C4)nc3c(F)c(-c4ccc(F)c5sc(N)c(C#N)c45)c(C(F)(F)F)cc23)[C@H]1C [Compound 260]	≤ 100	100 to 1000	≤ 100	≤ 100	> 1000	100 to 1000	–	–	–	–	–
CCN(c1nc(OC[C@@]23CCCN2C[C@H](F)C3)nc2c(F)c(-c3ccc(F)c4sc(N)c(C#N)c34)c(C(F)(F)F)cc12)[C@H]1C[C@H](C)N(C(=O)[C@@H]2CC2(F)F)C1 (atropisomer, axis not shown) [Compound 751]	≤ 100	≤ 100	≤ 100	–	–	≤ 100	–	–	–	–	–
CCN(c1nc(OC[C@@]23CCCN2C[C@H](F)C3)nc2c(F)c(-c3ccc(F)c4sc(N)c(C#N)c34)c(Cl)cc12)[C@@H]1CCN(C(=O)C2CC2)[C@@H]1C [Compound 337]	≤ 100	≤ 100	≤ 100	100 to 1000	> 1000	100 to 1000	–	–	–	–	–
C/C=C/C(=O)N1CC[C@H](N(CC)c2nc(OC[C@@]34CCCN3C[C@H](F)C4)nc3c(F)c(-c4ccc(F)c5sc(N)c(C#N)c45)c(C(F)(F)F)cc23)C1 (atropisomer, axis not shown) [Compound 674]	≤ 100	≤ 100	≤ 100	–	–	≤ 100	≤ 100	–	–	–	–
CCN(c1nc(OC[C@@]23CCCN2C[C@H](F)C3)nc2c(F)c(-c3ccc(F)c4sc(N)c(C#N)c34)c(C(F)(F)F)cc12)[C@H]1CCN(C(=O)N2CC(F)C2)C1 (atropisomer, axis not shown) [Compound 606]	≤ 100	≤ 100	≤ 100	–	–	100 to 1000	≤ 100	–	–	–	–
CCN(c1nc(OCC23CCCN2CC(F)C3)nc2c(F)c(-c3ccc(F)c4sc(N)c(C#N)c34)c(C(F)(F)F)cc12)C1CC(C)N(C(=O)C2CC2(F)F)C1 (stereo not shown) [Compound 732]	–	–	–	–	–	–	100 to 1000	≤ 100	≤ 100	≤ 100	≤ 100
CCN(c1nc(OC[C@@]23CCCN2C[C@H](F)C3)nc2c(F)c(-c3ccc(F)c4sc(N)c(C#N)c34)c(C(F)(F)F)cc12)[C@H]1C[C@@H](C)N(C(=O)C2COC2)C1 (atropisomer, axis not shown) [Compound 586]	≤ 100	100 to 1000	≤ 100	–	–	≤ 100	–	–	–	–	–
CCN(c1nc(OC[C@@]23CCCN2C[C@H](F)C3)nc2c(F)c(-c3ccc(F)c4sc(N)c(C#N)c34)c(C(F)(F)F)cc12)[C@H]1C[C@H](C)N(C(=O)N2CC(OC)C2)C1 (atropisomer, axis not shown) [Compound 764]	≤ 100	100 to 1000	≤ 100	–	–	> 1000	100 to 1000	–	–	–	–
N#Cc1c(N)sc2c(F)ccc(-c3c(C(F)(F)F)cc4c(N5CC6CC5CO6)nc(OC[C@@]56CCCN5C[C@H](F)C6)nc4c3F)c12 (stereo partly shown) [Compound 147]	–	–	–	–	–	100 to 1000	–	–	–	–	–
CCN(c1nc(OC[C@@]23CCCN2C[C@H](F)C3)nc2c(F)c(-c3ccc(F)c4sc(N)c(C#N)c34)c(C(F)(F)F)cc12)[C@H]1C[C@H](COC)N(C(=O)C2CC2)C1 (atropisomer, axis not shown) [Compound 696]	≤ 100	–	≤ 100	–	–	–	100 to 1000	–	–	–	–
C[C@H]1Cn2nc(C(=O)N(C)C)cc2CN1c1nc(OC[C@@]23CCCN2C[C@H](F)C3)nc2c(F)c(-c3ccc(F)c4sc(N)c(C#N)c34)c(C(F)(F)F)cc12 (atropisomer, axis not shown) [Compound 610]	≤ 100	≤ 100	≤ 100	–	–	100 to 1000	100 to 1000	–	–	–	–
CCN(c1nc(OC[C@@]23CCCN2C[C@H](F)C3)nc2c(F)c(-c3ccc(F)c4sc(N)c(C#N)c34)c(C(F)(F)F)cc12)[C@H]1CC(=O)N2CCC[C@@H]12 (atropisomer, axis not shown; (aS)) [Compound 697, 2-amino-4-((S)-4-(ethyl((1S,7aS)-3-oxohexahydro-1H-pyrrolizin-1-yl)amino)-8-fluoro-2-(((2R,7aS)-2-fluorotetrahydro-1H-pyrrolizin-7a(5H)-yl)methoxy)-6-(trifluoromethyl)quinazolin-7-yl)-7-fluorobenzo[b]thiophene-3-carbonitrile]	≤ 100	≤ 100	≤ 100	–	–	≤ 100	≤ 100	–	–	–	–
CCN(c1nc(OC[C@@]23CCCN2C[C@H](F)C3)nc2c(F)c(-c3ccc(F)c4sc(N)c(C#N)c34)c(C(F)(F)F)cc12)[C@H]1CCN(C(=O)C2CC2)[C@@H]1C (atropisomer, axis not shown) [Compound 579]	≤ 100	> 1000	≤ 100	–	–	100 to 1000	–	–	–	–	–
CCN(c1nc(OCC23CCCN2CC(F)C3)nc2c(F)c(-c3ccc(F)c4sc(N)c(C#N)c34)c(C(F)(F)F)cc12)C1CC(C)N(C(=O)N2CC(F)C2)C1 (stereo not shown) [Compound 759]	–	–	–	–	–	–	–	≤ 100	–	≤ 100	–
Cc1c(C(=O)N(C)C)nn2c1CN(c1nc(OC[C@@]34CCCN3C[C@H](F)C4)nc3c(F)c(-c4ccc(F)c5sc(N)c(C#N)c45)c(C(F)(F)F)cc13)CC2 (atropisomer, axis not shown; (aS)) [Compound 590, 5-((S)-7-(2-amino-3-cyano-7-fluorobenzo[b]thiophen-4-yl)-8-fluoro-2-(((2R,7aS)-2-fluorotetrahydro-1H-pyrrolizin-7a(5H)-yl)methoxy)-6-(trifluoromethyl)quinazolin-4-yl)-N,N,3-trimethyl-4,5,6,7-tetrahydropyrazolo[1,5-a]pyrazine-2-carboxamide]	–	–	–	–	–	–	–	≤ 100	≤ 100	≤ 100	≤ 100
CCN(c1nc(OC[C@@]23CCCN2C[C@H](F)C3)nc2c(F)c(-c3ccc(F)c4sc(N)c(C#N)c34)c(C(F)(F)F)cc12)[C@H]1C[C@H](C)N(C(C)=O)C1 [Compound 463]	≤ 100	100 to 1000	≤ 100	–	> 1000	> 1000	–	–	–	–	–
CCN(c1nc(OC[C@@]23CCCN2C[C@H](F)C3)nc2c(F)c(-c3ccc(F)c4sc(N)c(C#N)c34)c(C(F)(F)F)cc12)[C@H]1C[C@H](C)N(C(=O)OC)C1 (atropisomer, axis not shown) [Compound 704]	≤ 100	–	≤ 100	–	–	–	100 to 1000	–	–	–	–
CCN(c1nc(OC[C@@]23CCCN2C[C@H](F)C3)nc2c(F)c(-c3ccc(F)c4sc(N)c(C#N)c34)c(C(F)(F)F)cc12)[C@H]1CCN(C(=O)c2ncco2)C1 (atropisomer, axis not shown) [Compound 584]	≤ 100	100 to 1000	≤ 100	–	–	≤ 100	–	–	–	–	–
